From PubChem BioAssay AID2610 (Broad Institute, 2010)
Results filed as inconclusive are left out. Activity calls are given as the source filed them.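 The calls were made as follows: active = EC50 no more than tenfold above the top concentration tested, with valid fit and all samples agreeing; inconclusive = flat fit at 30 to 70% inhibition, poor fit, or split samples; inactive = EC50 beyond tenfold the top concentration tested.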

Test system: BJeLR fibroblast viability, Alamar Blue fluorescence, 48 h
Experiment: BJeLR fibroblast growth inhibition, viability readout – cell-based, alamar blue fluorescence, 48 h, cherrypicked samples, dose response (AID 2610);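 also: BJ fibroblasts with hTERT plus SV40 large and small T and HRAS V12; EC50 for loss of viable cells so potency reflects cytotoxic compounds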

| Structure (SMILES) | EC50 |
| --- | --- |
| CCCC(=O)Nc1ccc(C(=O)N/N=C/c2ccc([N+](=O)[O-])o2)cc1 | < 0.0488 µM |
| COc1cc2c(c(OC)c1OC)-c1ccc(O)c(=O)cc1C(NC(C)=O)CC2 (centres undefined) | < 0.104 µM |
| CCCCCCCCCC[n+]1cccc2c3ccccc3ccc21 | 8.03 µM |
| Cn1cccc1/C=C1\SC(=Nc2ccc(O)cc2)NC1=O | < 0.104 µM |
| FC(F)(F)c1nnc2c(Sc3ccccc3)nc3ccc(Cl)cc3n12 | 0.577 µM |
| Cc1ccc(/C=C2\SC(=S)N(CCCC(=O)N3CCOCC3)C2=O)cc1 | 3.58 µM |
| CC(=O)c1ccc(NC(=O)N2CCc3ccccc3C2)cc1 | > 13.3 µM (inactive) |
| COc1cc(OC)c(C2=NOC(C(=O)NCc3cccs3)C2)cc1Cl (centres undefined) | 2.32 µM |
| O=C(/C=C/c1ccco1)Nc1ccc(Oc2ccccc2)cc1 | > 13.3 µM (inactive) |
